Data set [1] in a line: Conductivities and solubilities of selected multipeptides at their pI. The class given is physicochemical. Particulars: for pI: Table 1; for Solubility: at pI. From the text: Table 1 lists conductivities and solubilities of selected multipeptides useful in the present invention, at their pI. The pH buffering capacity of the peptidic buffers of the present invention can be explained by using Gly-His at pH 7.5 as an example (the pI of Gly-His is 7.55). At this pH, the net charge of the molecule is essentially zero. At the pI, three species coexist. The bulk of the molecule (70%) consists of the neutral species that bears two internal charges, one positive and one negative resulting in a net charge of zero. […] Although there are small percentages of species presenting a net positive or negative charge in solution, there is minimal ionic transport of these charged species due to charge equilibrium between the three species (i.e., a positive charge migrating in the electric field will revert almost instantly to its neutral form and lose momentum or to its negative form and migrate backward). Thus, there is little if any ionic transport of the charged peptides into the systemic circulation of the patient. Due to the same principle of charge equilibrium, any depletion of the charged molecules will be compensated immediately by dissociation of the neutral form to its charged species thereby providing a reservoir insuring long term pH stability. In addition, if loss of the molecule occurs by electroosmosis of the neutral species, this will not result in any pH changes.

Data set [2] can be described thus: pKa, pI and % salt of peptidic buffers. The class given is physicochemical.

In general, Solubility refers to the dissolved amount per volume that the medium holds.

SMILES strings stand for the structures. ≈ marks a conversion by molar mass, not a printed value. Peptide text beside a SMILES is read from it.

`NCCCC[C@H](NC(=O)[C@@H](N)CCC(=O)O)C(=O)O` [Glu-Lys] (H-Glu-Lys-OH; N-terminus and C-terminus assumed) came in with a pI in data set [1] of 6.00. In data set [1], this molecule gave a Solubility of 1.00 mol/L (≈ 275 mg/mL). Also, the “pka A (acidic pKa)” value in data set [2] (Table 2, first acidic pKa) came to 2.85; in data set [2] (Table 2, second acidic pKa), 4.01. For the same molecule, the “pka B (basic pKa)” value in data set [2] (Table 2, first basic pKa) amounted to 7.94; in data set [2] (Table 2, second basic pKa), 11.07.

On to `NCC(=O)N[C@@H](Cc1c[nH]cn1)C(=O)O` [Gly-His] (H-Gly-His-OH; N-terminus and C-terminus assumed), for which, in data set [1], the pI was 7.55 and the Solubility was determined as 1.00 mol/L (≈ 212 mg/mL). Besides, in data set [2] (Table 2, first acidic pKa), the “pka A (acidic pKa)” value worked out at 2.42. Also, the “pka B (basic pKa)” value in data set [2] (Table 2, first basic pKa) amounted to 6.71. Also, the “pka B (basic pKa)” value in data set [2] (Table 2, second basic pKa) turned out to be 8.39.

In data set [1], `C[C@H](NC(=O)[C@@H](N)Cc1c[nH]cn1)C(=O)O` [His-Ala] (H-His-Ala-OH; N-terminus and C-terminus assumed) showed a pI of 6.95 and a Solubility of 0.50 mol/L (≈ 113 mg/mL). Also, in data set [2] (Table 2, first acidic pKa), the “pka A (acidic pKa)” value is given as 2.48. Besides, the “pka B (basic pKa)” value in data set [2] (Table 2, first basic pKa) was determined as 6.10. In data set [2] (Table 2, second basic pKa), the “pka B (basic pKa)” value worked out at 7.80.

Regarding `N[C@@H](Cc1c[nH]cn1)C(=O)N[C@@H](CC(=O)O)C(=O)O` [His-Asp] (H-His-Asp-OH; N-terminus and C-terminus assumed), the pI in data set [1] was 5.22. Also, the Solubility in data set [1] was found to be 0.05 mol/L (≈ 13.5 mg/mL). The “pka A (acidic pKa)” value turned out to be 2.28 in data set [2] (Table 2, first acidic pKa) and 3.99 in data set [2] (Table 2, second acidic pKa). The “pka B (basic pKa)” value in data set [2] (Table 2, first basic pKa) came to 6.45; in data set [2] (Table 2, second basic pKa), 8.19.

Regarding `N[C@@H](Cc1c[nH]cn1)C(=O)N[C@@H](CCC(=O)O)C(=O)O` [His-Glu] (H-His-Glu-OH; N-terminus and C-terminus assumed), the pI in data set [1] turned out to be 5.20. The molecule further yielded a Solubility in data set [1] of 0.40 mol/L (≈ 114 mg/mL). The “pka A (acidic pKa)” value stood at 2.30 in data set [2] (Table 2, first acidic pKa) and 4.19 in data set [2] (Table 2, second acidic pKa). For the same molecule, the “pka B (basic pKa)” value is recorded as 6.32 in data set [2] (Table 2, first basic pKa) and 8.07 in data set [2] (Table 2, second basic pKa).

For the molecule `N[C@@H](Cc1c[nH]cn1)C(=O)NCC(=O)O` [His-Gly] (H-His-Gly-OH; N-terminus and C-terminus assumed), in data set [1], the pI was 6.90 and the Solubility was 1.00 mol/L (≈ 212 mg/mL). Further, the “pka A (acidic pKa)” value in data set [2] (Table 2, first acidic pKa) is given as 2.41. The “pka B (basic pKa)” value in data set [2] (Table 2, first basic pKa) came out at 5.90. In addition, in data set [2] (Table 2, second basic pKa), the “pka B (basic pKa)” value was 7.91.

For the molecule `O=C(O)[C@H](Cc1c[nH]cn1)NC(=O)[C@@H]1CC(O)CN1` (stereo partly shown) [Hydroxyproline-His], the “pka A (acidic pKa)” value in data set [2] (Table 2, first acidic pKa) amounted to 2.42. For the same molecule, the “pka B (basic pKa)” value in data set [2] (Table 2, first basic pKa) is 6.71; in data set [2] (Table 2, second basic pKa), 8.23.

Regarding `CC[C@H](C)[C@H](N)C(=O)N[C@@H](Cc1c[nH]cn1)C(=O)O` [Isoleucine-His] (H-Ile-His-OH; N-terminus and C-terminus assumed), the “pka A (acidic pKa)” value in data set [2] (Table 2, first acidic pKa) stood at 2.42. The “pka B (basic pKa)” value in data set [2] (Table 2, first basic pKa) came to 6.71; in data set [2] (Table 2, second basic pKa) it was 8.20.

Take `CC(C)C[C@H](N)C(=O)N[C@@H](Cc1c[nH]cn1)C(=O)O` [Leu-His] (H-Leu-His-OH; N-terminus and C-terminus assumed): the “pka A (acidic pKa)” value in data set [2] (Table 2, first acidic pKa) came out at 2.42. The “pka B (basic pKa)” value came out at 6.71 in data set [2] (Table 2, first basic pKa) and 8.25 in data set [2] (Table 2, second basic pKa).

In data set [1], `NCCCC[C@H](N)C(=O)N[C@@H](CC(=O)O)C(=O)O` [Lys-Asp] (H-Lys-Asp-OH; N-terminus and C-terminus assumed) showed a pI of 6.08. The same molecule returned a Solubility in data set [1] of 1.00 mol/L (≈ 261 mg/mL). In addition, the “pka A (acidic pKa)” value came out at 2.64 in data set [2] (Table 2, first acidic pKa) and 4.10 in data set [2] (Table 2, second acidic pKa). Besides, the “pka B (basic pKa)” value in data set [2] (Table 2, first basic pKa) is recorded as 8.05; in data set [2] (Table 2, second basic pKa), 11.20.

`NCCCC[C@H](N)C(=O)N[C@@H](CCC(=O)O)C(=O)O` [Lys-Glu] (H-Lys-Glu-OH; N-terminus and C-terminus assumed) yielded a pI in data set [1] of 6.06. Moreover, in data set [1], the Solubility was 0.50 mol/L (≈ 138 mg/mL). The “pka A (acidic pKa)” value in data set [2] (Table 2, first acidic pKa) came out at 2.74; in data set [2] (Table 2, second acidic pKa) it was 4.18. The “pka B (basic pKa)” value worked out at 7.92 in data set [2] (Table 2, first basic pKa) and 11.12 in data set [2] (Table 2, second basic pKa).

`NCCCC[C@H](N)C(=O)N[C@@H](Cc1c[nH]cn1)C(=O)O` [Lys-His]: the “pka A (acidic pKa)” value in data set [2] (Table 2, first acidic pKa) is recorded as 2.42. In addition, the “pka B (basic pKa)” value is recorded as 6.71 in data set [2] (Table 2, first basic pKa); 8.00 in data set [2] (Table 2, second basic pKa); 11.00 in data set [2] (Table 2, third basic pKa).

As to `CSCC[C@H](N)C(=O)N[C@@H](Cc1c[nH]cn1)C(=O)O` [Met-His] (H-Met-His-OH; N-terminus and C-terminus assumed), the “pka A (acidic pKa)” value in data set [2] (Table 2, first acidic pKa) is given as 2.42. The “pka B (basic pKa)” value in data set [2] (Table 2, first basic pKa) worked out at 6.71; in data set [2] (Table 2, second basic pKa), 7.97.

On to `NCCC[C@H](N)C(=O)N[C@@H](Cc1c[nH]cn1)C(=O)O` [Ornithine-His], for which the “pka A (acidic pKa)” value in data set [2] (Table 2, first acidic pKa) stood at 2.42. In addition, the “pka B (basic pKa)” value in data set [2] (Table 2, first basic pKa) turned out to be 6.71; in data set [2] (Table 2, second basic pKa), 7.30; in data set [2] (Table 2, third basic pKa), 11.00.

With `N[C@@H](Cc1ccccc1)C(=O)N[C@@H](Cc1c[nH]cn1)C(=O)O` [Phe-His] (H-Phe-His-OH; N-terminus and C-terminus assumed), the “pka A (acidic pKa)” value in data set [2] (Table 2, first acidic pKa) worked out at 2.42. Moreover, the “pka B (basic pKa)” value was 6.71 in data set [2] (Table 2, first basic pKa) and 7.70 in data set [2] (Table 2, second basic pKa).

As for `O=C(O)[C@H](Cc1c[nH]cn1)NC(=O)[C@@H]1CCCN1` [Pro-His], the “pka A (acidic pKa)” value in data set [2] (Table 2, first acidic pKa) amounted to 2.42. Moreover, the “pka B (basic pKa)” value in data set [2] (Table 2, first basic pKa) came to 6.71; in data set [2] (Table 2, second basic pKa), 9.10.

Turning to `N[C@@H](CO)C(=O)N[C@@H](Cc1c[nH]cn1)C(=O)O` [Ser-His] (H-Ser-His-OH; N-terminus and C-terminus assumed), in data set [2] (Table 2, first acidic pKa), the “pka A (acidic pKa)” value was 2.42. Also, the “pka B (basic pKa)” value in data set [2] (Table 2, first basic pKa) worked out at 6.71; in data set [2] (Table 2, second basic pKa), 7.70.

On to `C[C@@H](O)[C@H](N)C(=O)N[C@@H](Cc1c[nH]cn1)C(=O)O` [Thr-His] (H-Thr-His-OH; N-terminus and C-terminus assumed), for which the “pka A (acidic pKa)” value in data set [2] (Table 2, first acidic pKa) amounted to 2.42. For the same molecule, the “pka B (basic pKa)” value in data set [2] (Table 2, first basic pKa) came out at 6.71; in data set [2] (Table 2, second basic pKa) it was 7.60.

Take `N[C@@H](Cc1c[nH]c2ccccc12)C(=O)N[C@@H](Cc1c[nH]cn1)C(=O)O` [Trp-His] (H-Trp-His-OH; N-terminus and C-terminus assumed): the “pka A (acidic pKa)” value in data set [2] (Table 2, first acidic pKa) worked out at 2.42. In addition, the “pka B (basic pKa)” value in data set [2] (Table 2, first basic pKa) is reported as 6.71; in data set [2] (Table 2, second basic pKa), 7.90.

In the case of `N=C(N)NCCC[C@H](NC(=O)[C@@H](N)Cc1ccc(O)cc1)C(=O)O` [Tyr-Arg], the “pka A (acidic pKa)” value in data set [2] (Table 2, first acidic pKa) came out at 2.64; in data set [2] (Table 2, second acidic pKa), 9.36. Further, the “pka B (basic pKa)” value was determined as 7.39 in data set [2] (Table 2, first basic pKa) and 11.62 in data set [2] (Table 2, second basic pKa).

For `N[C@@H](Cc1ccc(O)cc1)C(=O)N[C@@H](Cc1c[nH]cn1)C(=O)O` [Tyr-His] (H-Tyr-His-OH; N-terminus and C-terminus assumed), the “pka A (acidic pKa)” value in data set [2] (Table 2, first acidic pKa) is 2.42; in data set [2] (Table 2, second acidic pKa) it was 9.90. In addition, the “pka B (basic pKa)” value in data set [2] (Table 2, first basic pKa) worked out at 6.71; in data set [2] (Table 2, second basic pKa), 7.60.

The values are drawn from patent publication US20050142531A1, “Peptidically buffered formulations for electrotransport applications and methods of making” (priority 2003, published 2005).
